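The compound was tested at five concentrations on cells cultured in 96-well plates, with a 48-hour exposure period. GI50 marks 50% less growth.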 The source made the active and inactive calls. Rule as the data show it: active = GI50 up to about 1.1 µM and inactive = higher.
How the values were obtained:
Assay in all cases: NCI-60 cell line screen, 48 h
A498 = tested on: A498
Hs-578T = tested on: Hs-578T
OVCAR-4 = tested on: OVCAR-4
RPMI-8226 = tested on: RPMI-8226
SK-OV-3 = tested on: SK-OV-3
TK-10 = tested on: TK-10
SF-539 = tested on: SF-539
HT-29 = tested on: HT-29
CAKI-1 = tested on: CAKI-1
SF-295 = tested on: SF-295
NCI-H23 = tested on: NCI-H23
HOP-62 = tested on: HOP-62
SK-MEL-5 = tested on: SK-MEL-5
COLO 205 = tested on: COLO 205
K562 = tested on: K562
SN12C = tested on: SN12C
LOX IMVI = tested on: LOX IMVI
CCRF-CEM = tested on: CCRF-CEM

Structure (SMILES)	GI50 (A498)	GI50 (Hs-578T)	GI50 (OVCAR-4)	GI50 (RPMI-8226)	GI50 (SK-OV-3)	GI50 (TK-10)	GI50 (SF-539)	GI50 (HT-29)	GI50 (CAKI-1)	GI50 (SF-295)	GI50 (NCI-H23)	GI50 (HOP-62)	GI50 (SK-MEL-5)	GI50 (COLO 205)	GI50 (K562)	GI50 (SN12C)	GI50 (LOX IMVI)	GI50 (CCRF-CEM)
CC#CC(O)(C(=O)OC1CCCN(C)C1)C1=CC=CCC1 (stereo not drawn)	> 100 µM (inactive)	> 100 µM (inactive)	> 100 µM (inactive)	> 100 µM (inactive)	> 100 µM (inactive)	> 100 µM (inactive)	> 100 µM (inactive)	> 100 µM (inactive)	> 100 µM (inactive)	> 100 µM (inactive)	> 100 µM (inactive)	> 100 µM (inactive)	> 100 µM (inactive)	> 100 µM (inactive)	> 100 µM (inactive)	> 100 µM (inactive)	> 100 µM (inactive)	> 100 µM (inactive)
C=CCC(C(=O)O)c1ccccc1 (stereo not drawn)	> 100 µM (inactive)	> 100 µM (inactive)	> 100 µM (inactive)	> 100 µM (inactive)	> 100 µM (inactive)	> 100 µM (inactive)	> 100 µM (inactive)	> 100 µM (inactive)	> 100 µM (inactive)	> 100 µM (inactive)	> 100 µM (inactive)	> 100 µM (inactive)	> 100 µM (inactive)	> 100 µM (inactive)	> 100 µM (inactive)	> 100 µM (inactive)	> 100 µM (inactive)	> 100 µM (inactive)
O=C(CC(=O)Nc1ccccc1)NNC(Sc1ccccc1)c1cc(/N=N/c2ccc(Br)cc2)ccc1O (stereo not drawn)	1.91 µM (inactive)	> 10 µM (inactive)	1.56 µM (inactive)	4.2 µM (inactive)	4.21 µM (inactive)	1.45 µM (inactive)	1.66 µM (inactive)	8.13 µM (inactive)	4.82 µM (inactive)	3.85 µM (inactive)	2.83 µM (inactive)	3.08 µM (inactive)	1.06 µM (active)	3.2 µM (inactive)	2.54 µM (inactive)	1.89 µM (inactive)	2.49 µM (inactive)	0.417 µM (active)
CCOC(=O)C(NC(=O)CC(C)C)(N1CCN(c2cc3c(cc2F)c(=O)c(C(=O)O)cn3C2CC2)CC1)C(F)(F)F (stereo not drawn)	1.73 µM (inactive)	21.8 µM (inactive)	20.8 µM (inactive)	20.9 µM (inactive)	24 µM (inactive)	10.3 µM (inactive)	17.5 µM (inactive)	29.3 µM (inactive)	24.9 µM (inactive)	21.3 µM (inactive)	7.46 µM (inactive)	36.6 µM (inactive)	12.7 µM (inactive)	16.7 µM (inactive)	11 µM (inactive)	27.5 µM (inactive)	15.8 µM (inactive)	3.32 µM (inactive)
O=C1/C(=C\c2ccccc2)C(NC2CCCCC2)c2ccccc21 (stereo not drawn)	18.6 µM (inactive)	3.18 µM (inactive)	1.79 µM (inactive)	0.387 µM (active)	14 µM (inactive)	1.29 µM (inactive)	1 µM (active)	1.42 µM (inactive)	1.48 µM (inactive)	18.8 µM (inactive)	0.76 µM (active)	2.46 µM (inactive)	2.37 µM (inactive)	1.55 µM (inactive)	0.46 µM (active)	1.55 µM (inactive)	1.66 µM (inactive)	0.124 µM (active)
O=[N+]([O-])c1cc(Cl)ccc1S(=O)(=O)N1CCCc2cc(Cl)ccc21	45.6 µM (inactive)	> 100 µM (inactive)	88.9 µM (inactive)	20.6 µM (inactive)	59.6 µM (inactive)	> 100 µM (inactive)	93.1 µM (inactive)	21 µM (inactive)	45.2 µM (inactive)	45.7 µM (inactive)		> 100 µM (inactive)	30.8 µM (inactive)	51.8 µM (inactive)	9.48 µM (inactive)	> 100 µM (inactive)	34.8 µM (inactive)	6.17 µM (inactive)
C=CCc1ccccc1C1CC2(C(=O)OC)OC1C(C(=O)OC)=C2C(=O)OC (stereo not drawn)	> 10 µM (inactive)	> 10 µM (inactive)	> 10 µM (inactive)	> 10 µM (inactive)	> 10 µM (inactive)	> 10 µM (inactive)	> 10 µM (inactive)	> 10 µM (inactive)	> 10 µM (inactive)	> 10 µM (inactive)	> 10 µM (inactive)	> 10 µM (inactive)	> 10 µM (inactive)	> 10 µM (inactive)	> 10 µM (inactive)	> 10 µM (inactive)	> 10 µM (inactive)	> 10 µM (inactive)
CC1=NN(c2nc(N)nc(C/C(N)=N/O)n2)C(C)(C)C1	> 100 µM (inactive)	> 100 µM (inactive)	> 100 µM (inactive)	> 100 µM (inactive)	> 100 µM (inactive)	> 100 µM (inactive)	> 100 µM (inactive)	> 100 µM (inactive)	> 100 µM (inactive)	> 100 µM (inactive)	> 100 µM (inactive)	> 100 µM (inactive)	> 100 µM (inactive)	> 100 µM (inactive)	> 100 µM (inactive)	> 100 µM (inactive)	> 100 µM (inactive)	> 100 µM (inactive)
COC(=O)c1c(O)ccc2c1c1c(n2CCc2ccccc2)C(=O)c2ccccc2C1=O	16.6 µM (inactive)	13.3 µM (inactive)	6.79 µM (inactive)	7.03 µM (inactive)	18.3 µM (inactive)	11.6 µM (inactive)	16.7 µM (inactive)	11.8 µM (inactive)	13.1 µM (inactive)	19.1 µM (inactive)	11.6 µM (inactive)	21.4 µM (inactive)	12.5 µM (inactive)	1.83 µM (inactive)	8.38 µM (inactive)	12 µM (inactive)	15.7 µM (inactive)	12.8 µM (inactive)
O=C1O/C(=C(\Br)c2ccc([N+](=O)[O-])cc2)c2ccccc21	> 100 µM (inactive)	74.8 µM (inactive)	> 100 µM (inactive)	38.7 µM (inactive)	> 100 µM (inactive)	> 100 µM (inactive)	> 100 µM (inactive)	41.1 µM (inactive)	> 100 µM (inactive)	> 100 µM (inactive)	> 100 µM (inactive)	> 80.9 µM (inactive)	> 75.7 µM (inactive)	> 100 µM (inactive)	30.1 µM (inactive)	> 100 µM (inactive)	67.8 µM (inactive)	21.4 µM (inactive)
O=C1/C(=C/c2ccc(Cl)cc2)N=C(c2ccccc2)N1c1ccc(S(=O)(=O)Nc2nccs2)cc1	43.6 µM (inactive)	64.4 µM (inactive)	50.8 µM (inactive)	17.4 µM (inactive)	> 100 µM (inactive)	70.5 µM (inactive)	88.3 µM (inactive)	21.9 µM (inactive)	> 100 µM (inactive)	56.5 µM (inactive)	52.2 µM (inactive)	62.2 µM (inactive)	23.1 µM (inactive)	20.6 µM (inactive)	33 µM (inactive)	64 µM (inactive)	31.7 µM (inactive)	27 µM (inactive)
O=c1n(CCCN2CCOCC2)nc2n1-c1ccc3ccccc3c1SC2	89.9 µM (inactive)	37.6 µM (inactive)	56.9 µM (inactive)	45.2 µM (inactive)	63.2 µM (inactive)	84.1 µM (inactive)	39.6 µM (inactive)	19 µM (inactive)	49 µM (inactive)	19.9 µM (inactive)		52.2 µM (inactive)	29.4 µM (inactive)	1.43 µM (inactive)	67.1 µM (inactive)	71.9 µM (inactive)	26.9 µM (inactive)	45.5 µM (inactive)
CC1CCC2C(C(=O)O[C@H]3C4C=CO[C@@H](OC5OC(CO)C(O)C(O)C5O)C4[C@@]4(CO)O[C@@H]34)=CO[C@@H](OC3OC(CO)C(O)C(O)C3O)C12 (stereo partly drawn)	> 10 µM (inactive)	> 10 µM (inactive)	> 10 µM (inactive)	> 10 µM (inactive)	> 10 µM (inactive)	> 10 µM (inactive)	> 10 µM (inactive)	> 10 µM (inactive)	> 10 µM (inactive)	> 10 µM (inactive)	> 10 µM (inactive)	> 10 µM (inactive)	> 10 µM (inactive)	> 10 µM (inactive)	> 10 µM (inactive)	> 10 µM (inactive)	> 10 µM (inactive)	> 10 µM (inactive)
CCc1nc(N)nc(N)c1-c1ccc(N2CCOCC2)c(N=[N+]=[N-])c1	> 92 µM (inactive)	> 100 µM (inactive)	70.6 µM (inactive)	> 89.5 µM (inactive)	> 100 µM (inactive)	> 100 µM (inactive)	75.5 µM (inactive)	31.8 µM (inactive)	62.2 µM (inactive)	63 µM (inactive)	37.2 µM (inactive)	> 100 µM (inactive)	37.2 µM (inactive)	79.6 µM (inactive)	8.79 µM (inactive)	> 80.5 µM (inactive)	38.7 µM (inactive)	53.8 µM (inactive)
CC1(C)C(=O)N=C(N)N1C(=O)OCc1ccccc1	> 100 µM (inactive)	> 100 µM (inactive)	> 100 µM (inactive)	> 100 µM (inactive)	> 100 µM (inactive)	> 100 µM (inactive)	> 100 µM (inactive)	> 100 µM (inactive)	> 100 µM (inactive)	> 100 µM (inactive)	> 100 µM (inactive)	> 100 µM (inactive)	> 100 µM (inactive)	> 100 µM (inactive)	> 100 µM (inactive)	> 100 µM (inactive)	> 100 µM (inactive)	> 100 µM (inactive)
